{"source": "patent US7964593B2", "about": "“Indolone-acetamide derivatives, processes for preparing them and their uses” (UCB Pharma, S.A., priority 2003, dated 2011)", "key": {"[1]": {"conditions": "compared with levetiracetam, literature statement; cited from earlier work"}}, "data": [{"compound": "C[C@H](C(N)=O)N1C(=O)Cc2cc(Cl)ccc21", "note": "(single isomer, unassigned) [Compound 33]", "values": [{"measurement": "melting point", "value": "171 to 172", "unit": "°C"}]}, {"compound": "C[C@@H](C(N)=O)N1C(=O)Cc2cc(Cl)ccc21", "note": "(single isomer, unassigned) [Compound 34]", "values": [{"measurement": "melting point", "value": "171 to 172", "unit": "°C"}]}, {"compound": "CC[C@H](C(N)=O)N1CCCC1=O", "note": "[(R)-α-ethyl-2-oxo-1-pyrrolidine acetamide]", "values": [{"measurement": "activity in the treatment of epilepsy", "setting": "[1]", "value": "completely lacks activity"}]}]}
